This note sets out measurements from patent publication US4992449A, “7-(substituted)cycloalkylamino-1 -(substituted)-6-fluoro-1,4-dihydro-4-oxo-3-quinolinecarboxylic acids” (American Cyanamid Company, priority 1990, dated 1991).

What all share (experiment): In vitro antibacterial MIC, agar plate dilution
What all share (format): cell-based

Assay [1] relates to Escherichia coli ATCC 25922. The conditions noted are these: Table II, Excherichia coli ATCC 25922. How it is done:
(§1) The in vitro antimicrobial spectrum of the compounds of this invention were determined by the agar plate dilution method with Mueller-Hinton agar and an inoculum of each test organism of approximately 10^4 colony forming units delivered by the Steers replicating device. The minimal inhibitory concentration (MIC) in mcg/ml is defined as the lowest concentration of test compound that inhibited visible growth after 18 hours incubation at 35° C. Results are given in Table I, with the test compounds identified by the number of their hereinafter described examples

Assay [2] has as its system Pseudomonas aeruginosa VGH 84-4. The conditions noted are these: Table II. How it is done:
as §1

Assay [3] relates to Morganella morganii CMC 84-37. The conditions noted are these: Table II. How it is done: as §1
The test system of assay [4] is Streptococcus faecalis UCI 85-19. The conditions noted are these: Table II. As to the method:
as §1

Assay [5] has as its system Pseudomonas aeruginosa LL-1244. The conditions noted are these: Table II. As to the method: as §1
Assay [6] has as its system Serratia marcescens K 84-18. The conditions noted are these: Table II. As to the method: as §1
Assay [7] deals with Proteus rettgeri CMC 84-41. The conditions noted are these: Table II. As to the method: as §1
Assay [8] has as its system Staphylococcus aureus Smith 1. The conditions noted are these: Table II. As to the method: as §1
Assay [9] concerns Streptococcus faecalis VGH 84-65. The conditions noted are these: Table II. As to the method: as §1
Assay [10] has as its system Excherichia coli CMC 84-11. The conditions noted are these: Table II. How it is done:
as §1

Assay [11] relates to Serratia marcescens VGH 84-30. The conditions noted are these: Table II. How it is done: as §1
The test system of assay [12] is Staphylococcus aureus VGH 84-45. The conditions noted are these: Table II. As to the method: as §1
Assay [13] relates to Excherichia coli LL 311. The conditions noted are these: Table II. How it is done:
as §1

Assay [14] deals with Staphylococcus aureus ATCC 29213. The conditions noted are these: Table II. As to the method:
as §1

Where [15] appears, read: Escherichia coli, ATCC25922, 18 h, read-out: MIC.
Where [16] appears, read: Pseudomonas aeruginosa, VGH844, 18 h, read-out: MIC.
[17] abbreviates: Enterococcus faecalis, UCI8519, 18 h, read-out: MIC.
The mark [18] stands for this setting: Pseudomonas aeruginosa, LL1244, 18 h, read-out: MIC.
Setting [19] is: Providencia rettgeri, CMC8441, 18 h, read-out: MIC.
Setting [20] is: Staphylococcus aureus, SMITH1, 18 h, read-out: MIC.
Setting [21] is: Enterococcus faecalis, VGH8465, 18 h, read-out: MIC.
The mark [22] stands for this setting: Staphylococcus aureus, ATCC29213, 18 h, read-out: MIC.

In brackets after ≈: the same amount, converted by molar mass. Where two headings read alike, the source gives them in different places. Where only a bound is given, the exact number is not on record here.

As to `CCn1cc(C(=O)O)c(=O)c2cc(F)c(N[C@@H]3CCCC[C@@H]3O)cc21` (relative stereo) [Example 5, Cis-7-[(2-Hydroxycyclohecxyl)amino]-1-ethyl-6-fluoro-1,4-dihydro-4-oxo-3-quinolinecarboxylic acid], the MIC is 32 µg/mL (≈ 91.9 µM) in [1] (setting [15]); greater than 128 µg/mL in assay [2] (setting [16]); 32 µg/mL (≈ 91.9 µM) in assay [3] (CMC8437, 18 h, read-out: MIC); greater than 128 µg/mL in [4] (setting [17]); greater than 128 µg/mL in [5] (setting [18]); 64 µg/mL (≈ 184 µM) in assay [6] (K8418, 18 h, read-out: MIC). The MIC in [7] (setting [19]) is 64 µg/mL (≈ 184 µM); in [8] (setting [20]) it was 8 µg/mL (≈ 23 µM); in [9] (setting [21]), greater than 128 µg/mL; in [10] (18 h, read-out: MIC), 32 µg/mL (≈ 91.9 µM); in assay [11] (VGH8430, 18 h, read-out: MIC), greater than 128 µg/mL; in assay [12] (VGH8445, 18 h, read-out: MIC) it was 32 µg/mL (≈ 91.9 µM). Besides, the MIC in assay [13] (18 h, read-out: MIC) was found to be 16 µg/mL (≈ 45.9 µM); in [14] (setting [22]), 64 µg/mL (≈ 184 µM).

As to `CCn1cc(C(=O)O)c(=O)c2cc(F)c(N[C@@H]3CCCC[C@H]3N)cc21` (relative stereo) [Example 8, Trans-(-)-7-[(2-Aminocyclohexyl)amino]-1-ethyl-6-fluoro-1,4-dihydro-4-oxo-3-quinolinecarboxylic acid], the MIC in [1] (setting [15]) was 32 µg/mL (≈ 92.1 µM); in assay [2] (setting [16]), greater than 128 µg/mL; in assay [3] (CMC8437, 18 h, read-out: MIC) it was 32 µg/mL (≈ 92.1 µM); in assay [4] (setting [17]) it was 128 µg/mL (≈ 368 µM); in assay [5] (setting [18]) it was greater than 128 µg/mL; in [6] (K8418, 18 h, read-out: MIC) it was 32 µg/mL (≈ 92.1 µM). Further, the MIC in assay [7] (setting [19]) amounted to 128 µg/mL (≈ 368 µM); in [8], 16.00 µg/mL (≈ 46.1 µM); in assay [9] (setting [21]), 64 µg/mL (≈ 184 µM); in [10] (18 h, read-out: MIC), 16 µg/mL (≈ 46.1 µM); in [11] (VGH8430, 18 h, read-out: MIC), 128 µg/mL (≈ 368 µM); in assay [12] (VGH8445, 18 h, read-out: MIC), 128 µg/mL (≈ 368 µM). Also, the MIC in [13] (18 h, read-out: MIC) stood at 32 µg/mL (≈ 92.1 µM); in assay [14] (setting [22]) it was 128 µg/mL (≈ 368 µM).

`CCn1cc(C(=O)O)c(=O)c2cc(F)c(N[C@@H]3CCCC[C@@H]3NC)cc21` (relative stereo) [Example 10]: the MIC in [1] (setting [15]) came out at 8 µg/mL (≈ 22.1 µM); in assay [2] (setting [16]) it was 128 µg/mL (≈ 354 µM); in assay [3] (CMC8437, 18 h, read-out: MIC), 8 µg/mL (≈ 22.1 µM); in [4] (setting [17]) it was 32 µg/mL (≈ 88.5 µM); in assay [5] (setting [18]) it was 128 µg/mL (≈ 354 µM); in [6] (K8418, 18 h, read-out: MIC), 8 µg/mL (≈ 22.1 µM). The minimum inhibitory concentration (MIC) in [7] (setting [19]) is 32 µg/mL (≈ 88.5 µM); in [8] (setting [20]), 2 µg/mL (≈ 5.53 µM); in assay [9] (setting [21]), 32 µg/mL (≈ 88.5 µM); in assay [10] (18 h, read-out: MIC) it was 4 µg/mL (≈ 11.1 µM); in assay [11] (VGH8430, 18 h, read-out: MIC) it was 32 µg/mL (≈ 88.5 µM); in assay [12] (VGH8445, 18 h, read-out: MIC) it was 4 µg/mL (≈ 11.1 µM). The MIC in [13] (18 h, read-out: MIC) came to 4 µg/mL (≈ 11.1 µM); in assay [14] (setting [22]), 8 µg/mL (≈ 22.1 µM).

Regarding `CCn1cc(C(=O)O)c(=O)c2cc(F)c(N[C@@H]3CCCC[C@H]3N)cc21` (relative stereo) [Example 9, Trans-(+)-7-[(2-Aminocyclohexyl)amino]-1-ethyl-6-fluoro-1,4-dihydro-4-oxo-3-quinolinecarboxylic acid], the MIC in assay [1] was determined as 32.00 µg/mL (≈ 92.1 µM); in assay [2], 128.00 µg/mL (≈ 368 µM); in [3] it was 32.00 µg/mL (≈ 92.1 µM); in [4], 128.00 µg/mL (≈ 368 µM); in [5] it was 128.00 µg/mL (≈ 368 µM); in [6], 32.00 µg/mL (≈ 92.1 µM). For the same compound, the minimal inhibitory concentration (MIC) in [7] was 128.00 µg/mL (≈ 368 µM); in assay [8], 128.00 µg/mL (≈ 368 µM); in [9], 64.00 µg/mL (≈ 184 µM); in assay [10] it was 16.00 µg/mL (≈ 46.1 µM); in assay [11] it was 128.00 µg/mL (≈ 368 µM); in assay [12], 128.00 µg/mL (≈ 368 µM). Further, the figures for the MIC in assay [13] and in assay [14] were 32.00 µg/mL (≈ 92.1 µM) and greater than 128.00 µg/mL, respectively.

Take `CCn1cc(C(=O)O)c(=O)c2cc(F)c(N[C@@H]3CCCC[C@H]3N)cc21` (racemic) [Example 7, Trans-(+/-)-7-[(2-Aminocyclohexyl)amino]1-ethyl-6-fluoro-1,4-dihydro-4-oxo-3-quinolinecarboxylic acid]: the MIC came out at 32 µg/mL (≈ 92.1 µM) in assay [1] (setting [15]); 128 µg/mL (≈ 368 µM) in assay [2] (setting [16]); 32 µg/mL (≈ 92.1 µM) in [3] (CMC8437, 18 h, read-out: MIC); 128 µg/mL (≈ 368 µM) in assay [4] (setting [17]); 128 µg/mL (≈ 368 µM) in [5] (setting [18]); 64 µg/mL (≈ 184 µM) in assay [6] (K8418, 18 h, read-out: MIC). In addition, the MIC in [7] (setting [19]) worked out at 128 µg/mL (≈ 368 µM); in assay [8] (setting [20]) it was 16 µg/mL (≈ 46.1 µM); in [9] (setting [21]), 64 µg/mL (≈ 184 µM); in assay [10] (18 h, read-out: MIC), 16 µg/mL (≈ 46.1 µM); in assay [11] (VGH8430, 18 h, read-out: MIC), 128 µg/mL (≈ 368 µM); in assay [12] (VGH8445, 18 h, read-out: MIC), 128 µg/mL (≈ 368 µM). The MIC in assay [13] (18 h, read-out: MIC) is 32 µg/mL (≈ 92.1 µM); in [14] (setting [22]), greater than 128 µg/mL.

In the case of `CCn1cc(C(=O)O)c(=O)c2cc(F)c(N[C@@H]3CCCC[C@@H]3N)cc21` (relative stereo) [Example 6, Cis-7-[(2-Aminocyclohexyl)amino]-1-ethyl-6-fluoro-1,4-dihydro-4-oxo-3-quinolinecarboxylic acid], the MIC in [1] (setting [15]) was 0.5 µg/mL (≈ 1.44 µM); in assay [2] (setting [16]), 8 µg/mL (≈ 23 µM); in [3] (CMC8437, 18 h, read-out: MIC) it was 0.5 µg/mL (≈ 1.44 µM); in [4] (setting [17]) it was 8 µg/mL (≈ 23 µM); in [5] (setting [18]), 8 µg/mL (≈ 23 µM); in assay [6] (K8418, 18 h, read-out: MIC) it was 1 µg/mL (≈ 2.88 µM). Moreover, the MIC in assay [7] (setting [19]) is 1 µg/mL (≈ 2.88 µM); in assay [8] (setting [20]), 0.5 µg/mL (≈ 1.44 µM); in [9] (setting [21]) it was 8 µg/mL (≈ 23 µM); in assay [10] (18 h, read-out: MIC) it was 0.5 µg/mL (≈ 1.44 µM); in assay [11] (VGH8430, 18 h, read-out: MIC) it was 4 µg/mL (≈ 11.5 µM); in assay [12] (VGH8445, 18 h, read-out: MIC) it was 2 µg/mL (≈ 5.76 µM). The MIC came to 0.5 µg/mL (≈ 1.44 µM) in assay [13] (18 h, read-out: MIC) and 8 µg/mL (≈ 23 µM) in assay [14] (setting [22]).
